Reference: PMC11967380, “Rapid Determination of Xa Inhibitor Activity in Blood Using a Microfluidic Device that Measures Platelet Deposition and Fibrin Generation Under Flow” (TH Open: Companion Journal to Thrombosis and Haemostasis, 2025)

Tests used:
[1] = system: whole blood clotting on collagen/tissue factor (platelet and fibrin deposition); experiment: DOAC reversal and detection in blood of DOAC-treated patients (microfluidic platelet and fibrin signal); format: cell-based, human; details: 5,000 nM matching DOAC added ex vivo to patient blood, all subjects
Text: Platelets were labeled in whole blood by the addition of an AlexaFluor 488-conjugated anti-CD61 molecule (Bio-Rad Laboratories) and fibrin was quantified via the addition of AlexaFluor 594-conjugated fibrinogen (Life Technologies Co.), as previously described. Chips were mounted on a Lumascope 620 (Etaluma Inc.) LED epifluorescence microscope with a 2.5× objective (Meiji Techno). Each chip was primed with 1% bovine serum albumin (BSA) in HEPES-buffered saline (HBS) to passivate the surfaces ( Fig. 1A ). A volume of 60 μL of whole blood was added to each inlet well. A vacuum pressure of 140 mbar was applied to the outlet to yield an initial wall shear rate of 200 s ^−1 . Fluorescence images were captured at 10 s intervals for green and red LED channels to obtain kinetic data for platelet and fibrin deposition on the collagen/TF zone for up to 25 min. Images were analyzed with ImageJ to calculate the average pixel brightness of an inner 200 μm by 200 μm region within each clot.
For DOAC-treated patients on either rivaroxaban or apixaban, blood samples were obtained and analyzed, using the microfluidic device to measure platelets and fibrin deposition under flow as described above. […] For subjects 1 through 19, fluorescence data were collected for 15 minutes. […]
Statistical significance was calculated for paired t -tests, using GraphPad Prism 9 (GraphPad Software). […]

[2] = design: method as in PMID 31089975, PMID 23999929; details: cited from earlier work

Structure (SMILES)	fibrin signal [1]	plasma protein binding [2]
O=C(NC[C@H]1CN(c2ccc(N3CCOCC3=O)cc2)C(=O)O1)c1ccc(Cl)s1 [rivaroxaban]	nearly fully suppressed	high
COc1ccc(-n2nc(C(N)=O)c3c2C(=O)N(c2ccc(N4CCCCC4=O)cc2)CC3)cc1 [apixaban]	nearly fully suppressed	high
